The text below walks through data of patent US20030144174A1, “METHODS FOR IDENTIFYING COMPOUNDS USEFUL FOR THE REGULATION OF BODY WEIGHT AND ASSOCIATED CONDITIONS” (priority 1998, published 2003).

Entries after “also recorded” stand apart in the source; their conditions may differ.

Assay type in all cases: in vivo, mouse
The subject of assay [1] is ob/ob mutants. As to the kind of experiment: Weight gain and food intake in ob/ob mutants given leptin, MSH analog or both (Example 5, FIGS. 8 and 9). The protocol: Leptin deficient (ob/ob) mutants show both hyperphagia and “increased metabolic efficiency” as witnessed by their ability to gain weight even when pair-fed with normal congenic controls. To determine the effects of leptin and MSH on food intake and weight gain, four sets of ob/ob mutants were treated with leptin, an MSH analog, both together, or vehicle alone. The MSH analog [Ac-Cys^4, D-Phe^7, Cys^10] α-MSH (4-13) was purchased from Peninsula Laboratories (Belmont, Calif.). Mice were treated with daily injections of 7 micrograms of each, both or neither.

Assay [2] has as its system POMC homozygous mutant female mice. As to the kind of experiment: Daily intraperitoneal α-MSH analog in POMC homozygous mutant mice: body weight, food intake, coat (Example 2). The protocol:
(§1) To test initially for the effect of peripheral melanocortins on weight change, we selected the stable agonist [Ac-Cys^4, D-Phe^7, Cys^10] α-MSH (4-13) (described in Cody et al., 1985, J. Med. Chem. 28, 583-588; incorporated herein by reference in its entirety). Briefly, [Ac-Cys^4,D-Phe^7, Cys^10] α-MSH (4-13) amide, having the cysteines connected by a disulfide bridge, was obtained from Peninsula Laboratories, CA. Lyophilized powder was dissolved in water at 1 mg/ml, which was diluted in PBS to 10 μg/mL. During the experiments, mice were maintained on a normal 12 h/12 h light/dark cycle with food and water ad libitum. Mice were fed standard laboratory rodent diet (#5001).
(§2) In order to see whether the α-MSH analog has an effect on food intake, we compared weight change and food intake in these mice for one week (see bars in FIGS. 4A and 4B) under MSH analog treatment and after MSH analog treatment was stopped (FIGS. 4C and 4D). During one week under MSH analog treatment mutant mice lost 0.5 g, while wildtype littermates gained 0.3 g; the food intake during this time was equivalent in both groups (20.7 g in wildtypes, and 22.7 g in mutants).
An effect of MSH could also be seen on coat pigmentation. […] Yellow coat pigmentation gradually reappeared after MSH treatment was terminated (data not shown).

In assay [3] the test system is ob/ob mutants. As to the kind of experiment: Core temperature of ob/ob mutants exposed to 4° C. (Example 5, FIG. 10). The following applies: 7 micrograms; 5 hours without food, then 4° C. for 65 minutes; versus vehicle treated ob/ob. The protocol: In 1977, the decreased ability of ob/ob mutants to maintain body temperature at 4° C. was noted. This preceded the onset of obesity in these mice. In view of the evidence that MSH regulates adipocyte metabolism, the present inventors hypothesized that the low levels of circulating MSH in leptin deficient (ob/ob) mutants was responsible for the impaired thermal regulation. To test this, ob/ob mutants were injected with 7 micrograms of MSH analog or vehicle only as described above. The mice were left without food for 5 hours and then exposed to 4° C. for 65 minutes. Their core temperatures were measured periodically by transfer to a coldroom (4° C.) where core temperatures were measured using a digital thermometer fitted with a rectal probe (Atkins Technical Inc., Gainesville, Fla.). […] As the mice had no opportunity to eat between injection of the MSH analog and the cold challenge, food intake cannot be responsible for the altered thermal regulation.

The test system of a further assay is wildtype female mice. As to the kind of experiment: Daily intraperitoneal α-MSH analog in wildtype littermates: body weight, food intake (Example 2). As to conditions: for weight loss in wildtype littermates: 1 microgram i.p. daily, 16-day treatment. The protocol:
as §1, §2

A further assay concerns wildtype mice. As to the kind of experiment: Weight change and food intake by diet and MSH analog treatment, wildtype mice (Example 3, Table 1). The following applies: MSH analog i.p. 1 or 2 μg once daily. The protocol:
(§3) P values were determined by ANOVA. If the major component of weight regulation through the melanocortinergic pathway was the regulation of feeding behavior, the observed changes in body weight in POMC null mutant mice should be paralleled by a similar pattern in food uptake. This, however, was not observed (FIGS. 5B and 5D and Table 1).

In the next assay the test system is POMC null mutant mice. As to the kind of experiment: Weight change and food intake by diet and MSH analog treatment, POMC null mutant mice (Example 3, Table 1). The protocol:
as §3

In a further assay the test system is obese lep^ob/ob mice. As to the kind of experiment: Total weight change in obese lep ob/ob mice given leptin, α-MSH analog or both (Example 4, FIG. 6). The following applies: 3 μg of each compound i.p. once daily; lep ob/ob mice aged 2 months; compared to untreated controls. The protocol:
To assess a more general effect of peripheral melanocortin on adipocytes, another genetic form of obesity, in lep^ob/ob mice, was treated with the α-MSH analog. In this experiment, the mice received leptin or the α-MSH analog alone, and in combination. Briefly, obese lep^ob/ob mice at age 2 months (2 per group) received daily either: (1) 3 μg of α-MSH analog (described in Examples 2 and 3 above); (2) 3 μg of recombinant mouse leptin; (3) 3 μg of α-MSH analog and 3 μg of recombinant mouse leptin in combination; or (4) saline. The compounds were delivered intraperitoneally once daily, 1-2 hours before the onset of darkness.

The test system of assay [4] is ob/ob mutant mice (C57BL/6J-Lep^ob). As to the kind of experiment: Circulating MSH levels by RIA in ob/ob mutants treated with leptin (Example 5, FIG. 7). The following applies: leptin 7 microgram/day i.p., two hours after the tenth daily injection. The protocol:
To test the inductive ability of leptin on circulating MSH levels, ob/ob mutants (ob/ob mutant mice (C57BL/6J-Lep^ob) and congenic controls were purchased from the Jackson Laboratory, Bar Harbor, Me.) were treated with leptin (7 microgram/day) or with vehicle alone (Murine recombinant leptin was kindly provided by Dr. A. F. Parlow through the National Hormone and Pituitary Program (NHPP); hormones were diluted to 70 micrograms per milliliter in PBS; mice were injected intraperitoneally with 0.1 mL). Two hours after the tenth daily injection, blood samples were drawn from the retro-orbital sinus and analyzed for MSH levels by RIA following the manufacturer's instructions (Peninsula Laboratories, Belmont, Calif.).

The mark [5] stands for this setting: daily injections of 7 micrograms, ob/ob mutants.
[6] abbreviates: both genotypes on standard diet & MSH analog treatment.
Setting [7] is: mutant mice, MSH analog i.p. 1 or 2 μg once daily.

“[Ac-Cys^4, D-Phe^7, Cys^10] α-MSH (4-13) [MSH analog]”: in the assay on ob/ob mutants [1] (MSH analog together with a leptin dose sufficient to induce normal MSH levels, ob/ob mice), the “supplementing the weight reducing effect of leptin” value is reported as “inability of peripheral MSH analog to supplement the weight reducing effect”. Besides, in the assay on ob/ob mutants [1] (setting [5]), the “effect on weight gain compared with effect on food intake” value is on record as “greater on weight gain than on food intake”. Further, the weight gain entry in the assay on ob/ob mutants [1] (setting [5]) was “effectively decreased weight gain; also recorded: decreases weight gain”. In addition, the “weight loss by 2 weeks” value in assay [2] (1 microgram (~1 nmol) i.p. daily, mutant female mice, listed as MSH-agonist) is reported as 46 % of excess weight; in assay [2] (1 microgram (~1 nmol) i.p. daily, mutant female mice, listed as stable α-MSH agonist), “over 40 % of excess weight”. Moreover, in assay [2] (1 microgram (~1 nmol) i.p. daily, mutant female mice, within one week), the “weight loss within one week” value is reported as 38 % of excess weight. In addition, the “time until mutant mice started to gain weight after MSH injections were stopped” value in assay [2] (after the 16-day treatment ended) is reported as “about 10 days”. Also, the coat pigmentation result in assay [2] (mice treated for two weeks) is recorded as “lost their yellowish tinge”. Further, the “weight lost during one week under MSH analog treatment” value in assay [2] (mutant mice, second week of treatment) is on record as 0.5 g. In assay [2] (mutant mice, third week after termination), the “weight gained in one week after MSH analog treatment had been stopped for two weeks” value worked out at 1.7 g. Also, the “food intake during one week under MSH analog treatment” value was found to be 22.7 g in assay [2] (mutants, second week of treatment) and 20.7 g in the assay on wildtype female mice (wildtypes, second week of treatment). For the same molecule, the “food intake in one week after MSH analog treatment had been stopped for two weeks” value in assay [2] (mutants, third week after termination) came out at 35.7 g; in the assay on wildtype female mice (wildtypes, third week after termination), 24.2 g. The “core temperature during exposure to 4° C.” value with ob/ob mutants [3] is given as “maintained their core temperature much better; also recorded: increases thermal homeostasis”. Also, the “weight loss in wildtype littermates” value in the assay with wildtype female mice (listed as MSH-agonist) was “no significant weight loss”; in the assay with wildtype female mice (listed as stable α-MSH agonist) it was “did not lose significant weight”. For the same molecule, in the assay on wildtype female mice (wildtype littermates, second week of treatment), the “weight gained during one week under MSH analog treatment” value is reported as 0.3 g. In addition, the “weight gain in one week after MSH analog treatment had been stopped for two weeks” value with wildtype female mice (wildtype littermates, third week after termination) is recorded as 0.3 g. For the same molecule, the “food intake, standard diet v. standard diet & MSH analog treatment” value was “decreases food intake and ↓” in the assay on wildtype mice; “decreases food intake and ↓” in the assay on POMC null mutant mice (setting [7]). In addition, the “weight change, standard diet v. standard diet & MSH analog treatment” value was “completely capable of maintaining their body weight constant and ←→” in the assay on wildtype mice; “lose excess weight and ↓” in the assay on POMC null mutant mice (setting [7]). Also, the “food intake, wildtype v. mutant” value in the assay with POMC null mutant mice (setting [6]) was “↑”. The “weight change, wildtype v. mutant” value in the assay on POMC null mutant mice (setting [6]) is recorded as “↓”. Further, the “total weight change over a period of 10 days” value with obese lep^ob/ob mice is “slowed weight gain by almost half”.

B1: leptin: recombinant mouse leptin, product of the ob gene; Example 5 material provided through the NHPP (protein, UniProt P41160 22-167, looked up)
Leptin: VPIQKVQDDTKTLIKTIVTRINDISHTQSVSAKQRVTGLDFIPGLHPILSLSKMDQTLAVYQQVLTSLPSQNVLQIANDLENLRDLLHLLAFSKSCSLPQTSGLQKPESLDGVLEASLYSTEVVALSRLQGSLQDILQQLDVSPEC
As to B1, in the assay on ob/ob mutants [1] (setting [5]), the weight gain entry is recorded as “effectively decreased weight gain”. For the same molecule, the “circulating MSH levels” value in assay [4] was “approached those found in normal control mice; also recorded: induces almost normal levels of circulating MSH”. Further, the “total weight change over a period of 10 days” value in the assay with obese lep^ob/ob mice is “little effect on preventing further weight gain”.
